According to patent US6372884B1, “Biologically active compounds and methods of constructing and using the same” (priority 1987, dated 2002):
Ends that are not written are not given here.

Tests used:
[1] = Rate of loss of sulfhydryls on air oxidation (Ellman determination); assay type: physicochemical; conditions: 2 mg/ml in 0.1 M NaHCO3, 37° C., exposed to air, FIG. 23
[2] = Size-exclusion chromatography of oxidized peptides (Sephadex G-10); assay type: physicochemical; conditions: reduced versus non-reduced peptides
monoclonal antibody 9BG5 = test: Inhibition of binding of radioiodinated reovirus type 3 particles to 9BG5 coated wells; parameters: species or system mouse; conditions: for binding to neutralizing monoclonal antibody 9BG5, variant peptide compared with VL peptide: relative to VL peptide
Protocol: The wells of microtiter plates were coated with neutralizing anti-reovirus type 3 monoclonal antibody 9BG5 or irrelevant class matched monoclonal A11 by adsorption to staphylococcal protein A (SPA). SPA (sigma Chemical Co., St. Louis, Mo.) was diluted to 5 μg/ml in 0.1 M NaHCO3 pH 9.6 and 50 μl/well dispensed into 96 well polystyrene plates. Following overnight incubation at 4° C., the. wells were decanted, washed three times in PBS, and blocked with 2% BSA in PBS with 0.1% NaN3 for one hour at 37° C. The wells were decanted, washed three times in PBS and monoclonal antibody 9BG5 diluted to 10 μg/ml in 1% BSA in PBS with 0.1% NaN3 was added (50 μl/well) for 1-3 hours at 37° C. […] The wells were decanted and washed three times in PBS. Competitors were added at the concentrations noted (100 μl/well) diluted in 0.5% BSA in 5 mM phosphate buffer with 0.45% NaCl and preincubated for 45-60 minutes at 23° C. […] Following preincubation with inhibitors, radioiodinated reovirus type 3 particles diluted in 1% BSA in PBS with 0.1% NaN3 were added (5-10×10^5 CPM per well), and the incubation continued for 45 minutes. Wells were decanted, washed 8-10 times with PBS and the CPM bound determined. […] As shown in FIGS. 10A-C, 6,700 CPM were bound to 9BG5 coated wells and 500 CPM were bound to control (A11 ) coated wells in the absence of inhibitors. The mean ± standard deviation of binding inhibition (Determined as noted for FIG. 9) of replicate wells is shown. Control peptide B was used in this study. The competitor peptides in FIGS. 15A and 15B are those described herein. Competitor peptide VLA6 is identical to VL except that alanine is substituted for asparagine at position 6.

[3] = system: reovirus type 3 receptor on L cells; test: Inhibition of binding of radioiodinated reovirus particles to L cells; parameters: species or system murine; conditions: for binding to the reovirus type 3 receptor compared with VL peptide: summary statement in the discussion
[4] = system: C3H female mouse spleenocytes; test: Lymphocyte proliferation with or without concanavalin A; assay type: cell-based; conditions: for inhibition of con A induced lymphocyte proliferation: presence of con A, FIGS. 7B, 8A, 8B; for biologic activity compared with VL peptide: summary statement in the discussion; for inhibition of spontaneous lymphocyte proliferation: absence of con A, FIG. 7A
[5] = system: reovirus type 3 receptor (Reo3R); test: Flow cytometry: inhibition of 87.92.6 binding to cells; parameters: species or system murine; conditions: for inhibition of binding of 87.92.6 to murine L cells / inhibition of binding of 87.92.6 to R1.1 thymoma cells: FIG. 29; for inhibition of binding of 87.92.6 to R1.1 thymoma cells: R1.1 cells
Protocol: The ability of peptides to inhibit antibody binding to cells was determined by preincubation of the cells with varying amounts of inhibitor (in 100 μl dH2O) for between 30 minutes and 1 hour at 23° C. Cells (either L cells or R1.1 cells) were washed in 1% BSA/PBS/0.1% NaN3, and resuspended at 10^7/ml. 100 μl of cells were then added in 1% BSA/PBS/0.1% NaN3, and the incubation continued for 20-30 minutes. Antibodies (5 or 10 μl were added for an additional 20 minutes at 23° C. Ice cold 1% BSA/PBS/0.1% NaN3, was added, the cells centrifuged and washed prior to counterstaining with a 1:100 dilution of FITC goat anti-mouse Ig (Fisher Scientific) in 1% BSA/PBS/0.1% NaN3. The cells were washed twice and fluorescence intensity determined. Inhibition of binding was calculated as noted above with mean channel number utilized in place of CPM.
To assess the affinity of the cyclic peptides for the reovirus type 3 receptor (Reo3R), they were utilized in a series of assays to inhibit binding of 87.92.6 or control antibodies to specific receptors. […] The inhibition by VLC9C16 peptide was specific as binding of isotype matched monoclonal H013.4 to Thy2 molecules was not inhibited by VLC9C16 peptide (FIG. 30). Thus, VLC9C16 peptide is a specific Reo3R ligand with enhanced affinity compared with its linear analog.

L cells = test: Inhibition of L cell DNA synthesis (tritiated thymidine); assay type: cell-based, murine; conditions: tritiated thymidine incorporation after 24 hours, FIGS. 3 and 4
Protocol: Reovirus type 3 inhibits host cell DNA synthesis upon receptor perturbation. This effect is not due to infection of cells as replication defective reovirus type 3 particles retain this property. L cells were cultured at 5 ×10^4 cells per well of 96 well microtiter plates in 100 μl media for 24 hours. Reovirus type 3 particles (A) were added and incubated for an additional 24 hours prior to the addition of tritiated thymidine. Purified monoclonal antibodies 87.92.6 or HO 22.1 (B) were added for 1 hour at 37° C., then the culture media removed and replaced with 100 μl fresh media for 24 hours, prior to the addition of tritiated thymidine. The cells were incubated for an additional 4-6 hours and counts per minute (CPM) incorporated were determined.
87.92.6 is effective only as a native antibody while monomeric Fab fragments have no effect. VL peptide was synthesized with an additional amino terminal cysteine residue (VLSH) to form a dimeric peptide. VLSH peptide was dimerized by stirring a 5 mg/ml solution in 0.1 M ammonium bicarbonate overnight at 23° C. exposed to air. The peptides were then lyophilized. Dimerization was confirmed by Ellman determination according to the procedure of Ellman, G. L. Arch. […] Tritiated thymidine was added for an additional 4-6 hours, and counts per minute (CPM) incorporated was determined. Per cent inhibition was determined by the formula: [formula]

reovirus type 1 [6] = test: Delayed type hypersensitivity (footpad swelling), reovirus type 1; assay type: in vivo, mice; conditions: footpad challenge with virus
Protocol: (§1) FIG. 17 illustrates data for mice immunized with the reovirus types noted by injection of 10^7 PFU subcutaneously, or with the peptides noted at a dose of 100 μg split into two injections subcutaneously; one week later, mice were challenged with virus or peptides in the footpads; footpad swelling was determined as indicated in the following description 48 hours after challenge; the mean +SEM for groups of mice is shown.
(§2) For the study of DTH response, groups of mice were inoculated with either synthetic peptide or live reovirus type 3 subcutaneously (s.c.) in two separate sites on the dorsal flanks of the animal (over each hind limb); 50 μg of a synthetic peptide or 10^7 viral particles/0.2 ml were given in separate injections of 0.1 ml vol. Six days later, animals were challenged in the left footpad with 3×10^7 viral particles suspended in saline containing 2% gelatin (30 μl). Footpad swelling was recorded 24 hr later in a blind fashion (Greene, M. I. and Weiner, H. L., J. Immunol. 125:283-287, 1980). Four animals per group were studied, and the magnitude of the response was determined by comparing the challenged left footpad to the untreated right footpad.

[7] = system: reovirus type 3 receptor on R1.1 cells; test: Down-modulation of reovirus type 3 receptor, flow cytometry with 87.92.6; assay type: cell-based, murine; conditions: for reovirus type 3 receptor expression (decrease in mean channel fluorescence): peptides 100 μg/ml, three experiments, FIG. 6; for level of expression of the reovirus type 3 receptor: 1 hour at 37° C., up to 500 μg/ml peptide, FIGS. 5A-D
reovirus type 3 [8] = test: Delayed type hypersensitivity (footpad swelling), reovirus type 3; assay type: in vivo, mice
Protocol: as §1, §2

[9] = system: neutralizing monoclonal antibody 9BG5; assay type: binding, mouse
9B.G5 = test: Competitive RIA: inhibition of 9B.G5 - 87.92.6 interaction; assay type: binding; conditions: liquid phase assay, FIGS. 25 and 26
[10] = system: Thy 1.2 molecules on R1.1 cells; test: Expression of Thy 1.2 molecules, flow cytometry with HO 13.4; assay type: cell-based, murine; conditions: for expression of Thy 1.2 molecules: 1 hour at 37° C., up to 500 μg/ml peptide, FIGS. 5A-D
reovirus type 3 [11] = system: reovirus type 3; parameters: species or system Balb/c mice; conditions: mouse, in vivo
reovirus type 1 [12] = system: reovirus type 1; parameters: species or system Balb/c mice; conditions: mouse, in vivo
reovirus type 3 [13] = system: reovirus type 3; parameters: species or system Balb/c mice; conditions: mouse, in vivo; remark: listed apart in the source
reovirus type 1 [14] = system: reovirus type 1; parameters: species or system Balb/c mice; conditions: mouse, in vivo; remark: listed apart in the source

## KPGKTNKLLCYSGSTCQ (cysteine pairing not given here) [VLC10C16 peptide]
[1]
  rate of loss of sulfhydryls: more slowly
[2]
  molecular form following oxidation by size-exclusion chromatography: migrated more rapidly

## KPGKTNKLLIYSGSALQ [VLA15]
Monoclonal antibody 9BG5
  binding to neutralizing monoclonal antibody 9BG5, variant peptide compared with VL peptide: increased binding to neutralizing monoclonal antibody
[3]
  binding to the reovirus type 3 receptor compared with VL peptide: decreased binding to the reovirus type 3 receptor
[4]
  inhibition of con A induced lymphocyte proliferation: attenuated
  biologic activity compared with VL peptide: decreased biological activity

## KPGKTNKLLIYSGSTLQ [VL peptide, amino acids 39-55 of the light chain variable region of 87.92.6]
Monoclonal antibody 9BG5; FIGS. 10A-C
  inhibition of binding of reovirus type 3 particles to 9BG5: inhibits binding
[5]
  inhibition of binding of 87.92.6 to murine L cells: less effective competitor
  inhibition of binding of 87.92.6 to R1.1 thymoma cells: ineffectual
L cells
  inhibition of DNA synthesis by L cells: no effect
Reovirus type 1 [6]
  DTH response to reovirus type 1 after immunization with peptide: did not demonstrate significant DTH responses
[7]
  reovirus type 3 receptor expression (decrease in mean channel fluorescence): no effect
Reovirus type 3 [8]; footpad challenge with virus, FIGS. 15A and 15B
  DTH response to reovirus type 3 after immunization with peptide: significant DTH responses
Reovirus type 3 [8]; priming with type 3 virus, challenge with peptide
  DTH to the peptide in animals primed with type 3 virus: significant DTH
[3]; FIGS. 11A and 11B
  inhibition of binding of variant K to L cells: inhibits binding
[3]; FIGS. 11A-D
  inhibition of binding of reovirus type 3 to L cells: inhibits binding
[3]; reovirus type 1 utilizes a distinct receptor
  inhibition of binding of reovirus type 1 to cells: not inhibited
[4]
  inhibition of spontaneous lymphocyte proliferation: no significant effect
[9]
  specific binding of 9BG5 to peptide coated wells: small amount of binding

## QGLEWIGRIDPANG [VH peptide, amino acids 43-56 of the heavy chain variable region of 87.92.6 including CDR II]
[5]
  interaction with the reovirus type 3 receptor (Reo3R): does not significantly interact
  inhibition of binding of 87.92.6 to murine L cells: no effect
  inhibition of binding of 87.92.6 to R1.1 thymoma cells: no effect
9B.G5
  inhibition of 9B.G5 - 87.92.6 interaction: able to inhibit
[7]
  level of expression of the reovirus type 3 receptor: does not effect
[10]
  expression of Thy 1.2 molecules: does not effect
[9]
  specific binding of 9BG5 to peptide coated wells: only achieved background levels

## KPGKTNKCLIYSGSTCQ (cysteine pairing not given here) [VLC8C16 peptide]
[1]
  rate of loss of sulfhydryls: most rapid loss of sulfhydryls
[2]
  molecular form following oxidation by size-exclusion chromatography: remained chiefly as monomers

## KSGNASTPQQLQNLTLDIRQR [control peptide, control peptide, unrelated to this system, reference compound]
Reovirus type 3 [11]
  neutralization of L-cell lysis by reovirus type 3 by immune serum: no effect
Reovirus type 1 [12]
  neutralization of L-cell lysis by reovirus type 1 by immune serum: no effect
Reovirus type 3 [13]
  binding of immune serum to type 3 virus coated plates: bound poorly
[9]
  specific binding of 9BG5 to peptide coated wells: No significant binding
Reovirus type 1 [14]
  binding of immune serum to type 1 virus coated plates: bound poorly

## Cys-Lys-Pro-Gly-Lys-Thr-Asn-Lys-Leu-Leu-Ile-Tyr-Ser-Gly-Ser-Thr-Leu-Gln (CKPGKTNKLLIYSGSTLQ; also: dimeric) [VLSH peptide]
L cells
  inhibition of DNA synthesis by L cells: marked inhibition
[7]
  level of expression of the reovirus type 3 receptor: specifically down-modulates
  reovirus type 3 receptor expression (decrease in mean channel fluorescence): specifically down-modulated
[10]
  expression of Thy 1.2 molecules: does not effect
[10]; peptides 100 μg/ml, FIG. 6
  expression of Thy 1.2 molecules (decrease in mean channel fluorescence): without effecting
[4]
  inhibition of spontaneous lymphocyte proliferation: markedly inhibited

## KPGKTNKLLIYAGSTLQ [VLA12]
Monoclonal antibody 9BG5
  binding to neutralizing monoclonal antibody 9BG5, variant peptide compared with VL peptide: reduced binding to neutralizing monoclonal antibody
[3]
  binding to the reovirus type 3 receptor compared with VL peptide: reduced binding to the reovirus type 3 receptor
[4]
  inhibition of con A induced lymphocyte proliferation: attenuated
  biologic activity compared with VL peptide: reduced biologic activity

## KPGKTNKLLIYSASTLQ [VLA13]
Monoclonal antibody 9BG5
  binding to neutralizing monoclonal antibody 9BG5, variant peptide compared with VL peptide: increased binding
[4]
  inhibition of con A induced lymphocyte proliferation: increased effect
